# Residues, ends and D or L forms follow the SMILES beside them. *: point of attachment. Cbz = O=C(OCc1ccccc1)*; CH2F = FC*
# How the values were obtained:
# [1] = molecular target: T1, RIPK1 (Homo sapiens, UniProt Q13546); experiment: RIPK1 degradation by Western blot in Jurkat cells; format: cell-based; conditions: 4 h pretreatment followed by LD4172
# T1 construct: whole-cell lysates were prepared using a lysis buffer; endogenous in cells; host or cells: Jurkat
# T1 sequence (Q13546 1-671): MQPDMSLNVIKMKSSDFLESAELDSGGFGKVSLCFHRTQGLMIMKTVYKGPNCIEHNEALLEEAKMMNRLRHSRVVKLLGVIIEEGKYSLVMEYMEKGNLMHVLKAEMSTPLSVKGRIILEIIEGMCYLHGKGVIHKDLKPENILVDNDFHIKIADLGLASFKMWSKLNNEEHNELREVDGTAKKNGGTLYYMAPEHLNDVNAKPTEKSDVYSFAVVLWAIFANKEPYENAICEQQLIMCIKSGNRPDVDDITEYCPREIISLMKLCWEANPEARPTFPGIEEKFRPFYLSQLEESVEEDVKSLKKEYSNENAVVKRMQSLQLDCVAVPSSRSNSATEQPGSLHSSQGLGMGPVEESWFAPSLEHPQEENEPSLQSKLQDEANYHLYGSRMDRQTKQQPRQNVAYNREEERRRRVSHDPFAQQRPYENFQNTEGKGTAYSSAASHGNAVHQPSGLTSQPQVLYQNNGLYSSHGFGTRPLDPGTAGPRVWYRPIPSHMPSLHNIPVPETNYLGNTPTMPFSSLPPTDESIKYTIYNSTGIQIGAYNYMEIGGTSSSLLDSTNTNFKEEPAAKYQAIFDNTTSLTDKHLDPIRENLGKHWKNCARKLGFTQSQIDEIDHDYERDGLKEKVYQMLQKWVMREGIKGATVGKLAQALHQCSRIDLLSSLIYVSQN
# Method: (§1) Cells were seeded into six-well plates at a density of 5 × 10^5 cells/mL in 2 mL of complete culture medium. Following an overnight adaptation period, cells were treated with serially diluted LD4172 compounds for 24 h. After treatment, whole-cell lysates were prepared using a lysis buffer (1×RIPA supplemented with protease and phosphatase inhibitor cocktail). Protein concentrations in the lysates were measured using the BCA protein assay. Subsequently, equal amounts of protein (20 µg) from each sample were loaded onto a sodium dodecyl sulfate-polyacrylamide gel and separated by electrophoresis (Bio-Rad) at 120 V for 1.5 h. The separated proteins were then transferred to a polyvinylidene fluoride (PVDF) membrane using a Transblot Turbo system (Bio-Rad).
# (§2) After blocking for 1 h at room temperature in 1% BSA-TBST, the membranes were incubated overnight at 4 °C with specific primary antibodies (diluted at 1:1000 in TBST) targeting the proteins of interest, including anti-RIPK1 (3493, Cell Signaling Technology (CST)), anti-cleaved caspase 3 (9661, CST), anti-cleaved caspase7 (8438, CST), anti-cleaved PARP (5625, CST), anti-HMGB1 (3935, CST), anti-calreticulin (12238, CST), and anti-β-actin (4970, CST). […] All western blots were processed and quantified using ImageJ software, and protein levels were normalized to β-actin loading controls.
# [2] = molecular target: T2, RIPK1 (Mus musculus, UniProt Q60855); experiment: RIPK1 degradation by Western blot in B16F10 cells; format: cell-based; conditions: 4 h pretreatment followed by LD4172
# T2 construct: endogenous in cells; host or cells: B16F10
# T2 sequence (Q60855 1-656): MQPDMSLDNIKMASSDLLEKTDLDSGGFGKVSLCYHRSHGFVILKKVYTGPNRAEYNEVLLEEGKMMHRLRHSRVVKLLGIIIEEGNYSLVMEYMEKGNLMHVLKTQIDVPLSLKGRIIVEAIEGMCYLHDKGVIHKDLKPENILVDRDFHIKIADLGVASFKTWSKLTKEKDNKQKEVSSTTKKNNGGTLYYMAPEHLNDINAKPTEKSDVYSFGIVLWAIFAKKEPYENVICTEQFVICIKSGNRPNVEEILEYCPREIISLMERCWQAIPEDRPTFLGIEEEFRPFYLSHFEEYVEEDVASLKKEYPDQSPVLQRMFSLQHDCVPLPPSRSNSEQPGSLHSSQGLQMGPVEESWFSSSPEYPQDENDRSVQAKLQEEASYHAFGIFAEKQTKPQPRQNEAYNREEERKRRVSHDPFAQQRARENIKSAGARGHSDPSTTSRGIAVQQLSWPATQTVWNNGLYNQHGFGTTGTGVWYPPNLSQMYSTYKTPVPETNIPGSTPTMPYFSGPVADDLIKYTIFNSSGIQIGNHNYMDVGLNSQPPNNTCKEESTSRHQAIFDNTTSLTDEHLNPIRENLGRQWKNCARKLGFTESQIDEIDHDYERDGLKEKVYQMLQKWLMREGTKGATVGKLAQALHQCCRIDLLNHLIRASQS
# Method: as §1, §2
# [3] = system: B16F10 cells; experiment: TNFα-mediated apoptosis in B16F10 cells (Annexin V/PI, caspase 3/7, PARP); format: cell-based, mouse; conditions: 72 h
# Method: Fig. 3 LD4172 sensitizes B16F10 cells to TNFα-mediated apoptosis. B16F10 cells were treated with or without TNFα (100 ng/mL), Z-VAD-FMK (25 μM), LD4172 (1 μM), and/or T2I (1 μM) for 72 h. A NF-κB activity in B16F10 cells expressing a NanoLuc reporter for NF-κB response. Data represent the mean NF-κB activity ± SD (n = 3 biologically independent samples from two independent experiments). Statistical significance was determined using a two-tailed unpaired t-test, with P values indicated. B Representative flow cytometry dot plots showing apoptosis in B16F10 cells from three independent experiments (n = 3 biologically independent samples per experiment). […] Cell death was quantified by PI uptake using the Cytation 5 imager. D Top: Percentage of PI+ B16F10 cells after 72 h of the indicated treatments, calculated as PI+ (%) = (Number of PI+ cells/Total cells) × 100%, using the Cytation 5 imager. […] Statistical significance was determined using a two-tailed unpaired t-test, with P values indicated. […] E Top: Quantification of extracellular ATP levels secreted by B16F10 cells. Data represent mean extracellular ATP levels ± SD (n = 4 biologically independent samples from one experiment), with statistical significance determined by a two-tailed unpaired t-test, and P values indicated. […]
# [4] = system: B16F10 tumors; experiment: B16F10 syngeneic tumor model; format: in vivo, C57BL/6J mice; conditions: compound 20 mg/kg i.p. daily plus anti-PD1 100 µg every 3 days
# Method: To establish a syngeneic mouse model, 3 × 10^5 B16F10 cells resuspended in PBS were mixed 1:1 with Matrigel (354262, Corning) and subcutaneously injected into the right flank of 7-week-old wild-type female C57BL/6J mice on day 0. Tumor sizes were measured on day 6, and mice were grouped such that the average tumor volume was ~100 mm³. Treatments began on day 7. Antibodies, including anti-PD1 (100 μg, BE0146, BioXcell) and anti-CD8 (500 μg, BE0004, BioXcell), were administered intraperitoneally every 3 days in 100 μL volumes. The RIPK1 degrader LD4172 and RIPK1 kinase inhibitor T2I were delivered in 200 μL of vehicle solution (30% PEG400, 5% Tween-80, 5% DMSO) daily via intraperitoneal injection (20 mg/kg). T-cell depletion or blocking was confirmed by flow cytometry in tumor-bearing mice. Tumors were measured every 3 days starting from day 7 post-injection until euthanasia. Mice were euthanized via CO2 inhalation when the tumor size reached 1.5 cm in the longest dimension or if severe necrosis was observed. Tumor volume was calculated using the formula: (L × W ²)/2, where L represents the length and W the width. To comply with ethical guidelines and ensure data quality, animals were humanely euthanized either when tumors reached the maximum permitted size or immediately before flow cytometry analysis, which required fresh tumor tissues. […]
# [5] = system: NF-κB; experiment: NF-κB reporter assay in B16F10 cells; format: cell-based, mouse; conditions: TNFα 100 ng/mL, compound 1 μM
# Method: One million B16F10 cells were seeded in T25 flask. The next day, cells were transfected with the NanoLuc Reporter Vector with NF-κB Response Element (pNL3.2.NF-kB-RE; Promega; Cat. No. N1111) using Lipofectamine 3000 transfection reagent (Invitrogen) at a ratio of 1:3, DNA:Lipofectamine. After 24 h, cells were collected and seeded at 2000 cells per well in triplicate in an opaque 96 well plate. 24 h later the media was discarded and replaced with fresh DMEM media and treated with indicated cytokine cocktail for 24 h. Reporter expression was read out using the Nano-Glo Luciferase Assay System (Promega) according to the manufacturer’s instruction.
SMILES,LD4172-induced RIPK1 degradation after pretreatment [1],LD4172-induced RIPK1 degradation after pretreatment [2],further results
CC(C)C[C@H](NC(=O)[C@H](CCc1ccccc1)NC(=O)CN1CCOCC1)C(=O)N[C@@H](Cc1ccccc1)C(=O)N[C@@H](CC(C)C)C(=O)[C@@]1(C)CO1 [carfilzomib],reversed,reversed,
NS(=O)(=O)OC[C@@H]1C[C@@H](n2ccc3c(N[C@H]4CCc5ccccc54)ncnc32)C[C@@H]1O [MLN4924],reversed,reversed,
COC(=O)C[C@H](NC(=O)[C@H](C)NC(=O)[C@@H](NC(=O)OCc1ccccc1)C(C)C)C(=O)CF [Z-VAD-FMK] (Cbz-Val-Ala-Asp(OMe)-CH2F),,,reversal of apoptosis induced by TNFα and LD4172 ([3]; Z-VAD-FMK 25 μM): reversed
CCn1cc(-c2ccc3c(c2)CCN3C(=O)Cc2cccc(OC(F)(F)F)c2)c2c(N)ncnc21 [T2I],,,"tumor response in combination with anti-PD1 [4]: failed to sensitize B16F10 tumors to anti-PD1 treatment; TNFα-mediated apoptosis ([3]; TNFα 100 ng/mL, compound 1 μM): did not trigger TNFα-mediated apoptosis; TNF-α-induced NF-κB activity [5]: not"

# — article PMC11649918, “Development of a RIPK1 degrader to enhance antitumor immunity” (Nature Communications, 2024)
